In the C3SDB collision cross section collection:
Where “and” joins values, the source holds several entries; their conditions need not be identical. Equal values may be shown once.

Key:
[1] = instrument: TW, calibrated with phosphatidylcholines (ESI+) and phosphatidylethanolamines (ESI-), doubly charged cardiolipins calibrated with poly-DL-…
[2] = instrument: DT, single field
[3] = instrument: DT, stepped-field
[4] = [M+H]+; instrument: TW; calibrated with phosphatidylcholines (ESI+) and phosphatidylethanolamines (ESI-)
[5] = instrument: DT, single field, calibrated with Agilent tune mix (Agilent)

Q: For `CCCCCC/C=C\CCCCCCCC(=O)OC[C@H](COP(=O)(O)OCCNC(=O)CCCCCCCCCCCCCCC)OC(=O)CCCCCCCCCCCCCCC` [AcylPE(48:1)], which “collision cross section (N2)” value ([1]; [M+Na]+) is on record?
A: The value was 325 Å².

Q: What about the “collision cross section (N2)” value ([1]; [M-H]-) of the same molecule?
A: The value was 316.85 Å².

Q: With `CCCCCCCCCCCCCCCC(=O)NCCOP(=O)(O)OC[C@@H](COC(=O)CCCCCCCCCCCCCCC)OC(=O)CCCCCCCC1CC1CCCCCC` (stereo partly drawn) [AcylPE(49:1)] as the molecule, how does the “collision cross section (N2)” value ([1]; [M+Na]+) read?
A: Its value is 328.3 Å².

Q: What about the “collision cross section (N2)” value ([1]; [M-H]-) of the same molecule?
A: Its value is 320.39 Å².

Q: For `CCCCCC/C=C\CCCCCCCC(=O)OC[C@H](COP(=O)(O)OC[C@@H](O)COC(=O)CCCCCCCCCCCCCCC)OC(=O)CCCCCCCCCCCCCCC` [AcylPG(48:1)], which “collision cross section (N2)” value ([1]; [M+Na]+) is on record?
A: Its value is 327.7 Å².

Q: What about the “collision cross section (N2)” value ([1]; [M-H]-) of the same molecule?
A: Its value is 316.96 Å².

Q: Which “collision cross section (N2)” value ([1]; [M+Na]+) does the source give for `CCCCCCCCCCCCCCCC(=O)OC[C@H](O)COP(=O)(O)OC[C@@H](COC(=O)CCCCCCCCCCCCCCC)OC(=O)CCCCCCCC1CC1CCCCCC` (stereo partly drawn) [AcylPG(49:1)] here?
A: Its value is 332.3 Å².

Q: What about the “collision cross section (N2)” value ([1]; [M-H]-) of the same molecule?
A: Its value is 320.54 Å².

Q: For `CCCCCC/C=C\CCCCCCCC(=O)OCC(COP(=O)(O)OCC(O)COP(=O)(O)OCC(COC(=O)CCCCCCCCCCCCCC)OC(=O)CCCCCCC/C=C\CCCCCC)OC(=O)CCCCCCC/C=C\CCCCCC` (stereo not drawn) [CL(63:3)], which “collision cross section (N2)” value ([1]; [M-2H]2-) is on record?
A: Its value is 394.68 Å².

Q: With `CCCCCC/C=C\CCCCCCCC(=O)OC(COC(=O)CCCCCCCC1CC1CCCCCC)COP(=O)(O)OCC(O)COP(=O)(O)OCC(COC(=O)CCCCCCCCCCCCCCC)OC(=O)CCCCCCC/C=C\CCCCCCCC` (stereo not drawn) [CL(67:3)] as the molecule, how does the “collision cross section (N2)” value ([1]; [M+2K]2+) read?
A: Its value is 428.6 Å².

Q: And the “collision cross section (N2)” value ([1]; [M-2H]2-)?
A: Its value is 404.47 Å².

Q: With `CCCCCC/C=C\CCCCCCCC(=O)OCC(COP(=O)(O)OCC(O)COP(=O)(O)OCC(COC(=O)CCCCCCCC1CC1CCCCCC)OC(=O)CCCCCCC/C=C\CCCCCC)OC(=O)CCCCCCC/C=C\CCCCCCCC` (stereo not drawn) [CL(67:4)] as the molecule, how does the “collision cross section (N2)” value ([1]; [M-2H]2-) read?
A: Its value is 404.19 Å².

Q: With `CCCCCC/C=C\CCCCCCCC(=O)OC(COC(=O)CCCCCCCC1CC1CCCCCCCC)COP(=O)(O)OCC(O)COP(=O)(O)OCC(COC(=O)CCCCCCCCCCCCCCC)OC(=O)CCCCCCC/C=C\CCCCCCCC` (stereo not drawn) [CL(69:3)] as the molecule, how does the “collision cross section (N2)” value ([1]; [M-2H]2-) read?
A: Its value is 408.91 Å².

Q: With `CCCCCCCCCCCCCCC(=O)O[C@H](CO)COP(=O)([O-])OCC[NH3+]` [LPE(0:0/15:0)] as the molecule, how does the “collision cross section (N2)” value ([1]; [M+H]+) read?
A: Its value is 212.69 Å².

Q: And the “collision cross section (N2)” value ([1]; [M+Na]+)?
A: Its value is 216.84 Å².

Q: And the “collision cross section (N2)” value ([1]; [M-H]-)?
A: Its value is 202.25 Å².

Q: What does the source list for `CCCCCCCC/C=C/CCCCCCCC(=O)O[C@H](CO)COP(=O)([O-])OCC[NH3+]` [LPE(0:0/18:1)]?
A: collision cross section (N2) ([1]; [M+H]+): 215.99 Å²; collision cross section (N2) ([1]; [M+Na]+): 220.12 Å²; collision cross section (N2) ([1]; [M-H]-): 210.71 Å²

Q: For `CCCCCCCCCCCCCC(=O)OC[C@@H](O)COP(=O)([O-])OCC[NH3+]` [LPE(14:0/0:0)], which “collision cross section (N2)” value ([1]; [M+H]+) is on record?
A: The value was 206.14 Å².

Q: And the “collision cross section (N2)” value ([1]; [M+Na]+)?
A: The value was 212.49 Å².

Q: And the “collision cross section (N2)” value ([1]; [M-H]-)?
A: The value was 199.2 Å².

Q: Which “collision cross section (N2)” value ([1]; [M-H]-) does the source give for `CCCCC1CC1CCCCCCCC(=O)OC[C@@H](O)COP(=O)([O-])OCC[NH3+]` (stereo partly drawn) [LPE(15:1/0:0)] here?
A: Its value is 200.28 Å².

Q: What does the source list for `C=CCCCCCCCCCCCCC(=O)O[C@H](COC(=O)CCCCCCCCCCCCCCC)COP(=O)([O-])OCC[N+](C)(C)C` [PC(31:1)]?
A: collision cross section (N2) ([2]; [M+H]+): 276.07 Å²; collision cross section (N2) ([3]; [M+K]+): 286.5 Å²

Q: Which “collision cross section (N2)” value [4] does the source give for `CCCCCC/C=C\CCCCCCCCCC(=O)OC[C@H](COP(=O)([O-])OCC[N+](C)(C)C)OC(=O)CCCCCCCCCCCCC` [PC(32:1)] here?
A: Its value is 278 Å².

Q: And the “collision cross section (N2)” value ([5]; [M+Na]+)?
A: The value was 282.6 Å².

Q: And the “collision cross section (N2)” value ([2]; [M+H]+)?
A: The value was 279.13 Å².

Q: With `CCCCCCCCCCCCC=CC[C@@H](O)[C@H](COP(=O)([O-])OCC[N+](C)(C)C)NC(=O)CCCCCCCCCCCCCCCC` [SM(35:1)] as the molecule, how does the “collision cross section (N2)” value ([5]; [M+H]+) read?
A: The value was 285.1 Å².

Q: And the “collision cross section (N2)” value ([5]; [M+Na]+)?
A: The value was 285.6 Å².

Q: What about the “collision cross section (N2)” value ([2]; [M+H]+) of the same molecule?
A: The value was 284.31 Å².

Q: And the “collision cross section (N2)” value ([3]; [M+Na]+)?
A: Its value is 289.1 Å².

Q: Which “collision cross section (N2)” value ([5]; [M+HCOO]-) does the source give for `CCCCCCCCCCCCC=CC[C@@H](O)[C@H](COP(=O)([O-])OCC[N+](C)(C)C)NC(=O)CCCCCCCCCCCCCCCCCCC` [SM(38:1)] here?
A: The value was 292.1 Å².

Q: And the “collision cross section (N2)” value ([2]; [M+H]+)?
A: The value was 293.47 Å².

Q: What about the “collision cross section (N2)” value ([3]; [M+Na]+) of the same molecule?
A: The value was 298.5 Å².

Q: Which “collision cross section (N2)” value ([5]; [M+HCOO]-) does the source give for `CCCCCCCCCCCCC=CC[C@@H](O)[C@H](COP(=O)([O-])OCC[N+](C)(C)C)NC(=O)CCCCCCCCCCCCCCCCCCCCCC` [SM(41:1)] here?
A: The value was 300.3 Å².

Q: And the “collision cross section (N2)” value ([5]; [M+H]+)?
A: Its value is 302.9 Å².

Q: And the “collision cross section (N2)” value ([5]; [M+Na]+)?
A: The value was 302.8 Å².

Q: What about the “collision cross section (N2)” value ([2]; [M+H]+) of the same molecule?
A: The value was 302.5 Å².

Q: And the “collision cross section (N2)” value ([3]; [M+Na]+)?
A: The value was 306.3 Å².

Q: Which “collision cross section (N2)” value ([5]; [M+HCOO]-) does the source give for `CCCCCCCCCCCCC=CC[C@@H](O)[C@H](COP(=O)([O-])OCC[N+](C)(C)C)NC(=O)CCCCCCCCCCCCCCCCCCCCCCC` [SM(42:1)] here?
A: The value was 303 Å².

Q: What about the “collision cross section (N2)” value ([2]; [M+H]+) of the same molecule?
A: Its value is 304.96 Å².

Q: And the “collision cross section (N2)” value ([3]; [M+Na]+)?
A: Its value is 309.3 Å².

Q: Which “collision cross section (N2)” value ([5]; [M+H]+) does the source give for `CCCCCCCCCCCCC=CC[C@@H](O)[C@H](COP(=O)([O-])OCC[N+](C)(C)C)NC(=O)CC=CCCCCCCCCCCCCCCCCCCCC` [SM(42:2)] here?
A: The value was 304.2 Å².

Q: What about the “collision cross section (N2)” value ([5]; [M+Na]+) of the same molecule?
A: The value was 304.4 Å².

Q: And the “collision cross section (N2)” value ([2]; [M+H]+)?
A: The value was 305.54 Å².

Q: And the “collision cross section (N2)” value ([3]; [M+Na]+)?
A: Its value is 308.2 Å².

Q: Which “collision cross section (N2)” value ([5]; [M+NH4]+) does the source give for `CCCCC/C=C\C/C=C\C/C=C\CCCCCCC(=O)O[C@H](COC(=O)CCCCCCCCCCCCCCC)COC(=O)CCCCCCCCCCCCCCCCCCCCC` [TG(58:3)] here?
A: The value was 336.8 Å².

Q: And the “collision cross section (N2)” value ([2]; [M+NH4]+)?
A: Its value is 339.23 Å² and 342.34 Å² and 337.3 Å².

Q: What does the source list for `CCCCC/C=C\C/C=C\C/C=C\CCCCCCCCC(=O)OC[C@@H](COC(=O)CCCCCCC/C=C\CCCCCCC)OC(=O)CCCCCCCCCCCCCCCCCC` [TG(58:4)]?
A: collision cross section (N2) ([5]; [M+NH4]+): 336.6 Å²; collision cross section (N2) ([2]; [M+NH4]+): 340.43 Å² and 336.2 Å²

Q: Which “collision cross section (N2)” value ([5]; [M+NH4]+) does the source give for `CC/C=C\C/C=C\C/C=C\C/C=C\C/C=C\CCCCCC(=O)OC[C@@H](COC(=O)CCCCCCC/C=C\CCCCCC)OC(=O)CCCCCC/C=C\C/C=C\C/C=C\CCCCC` [TG(58:9)] here?
A: Its value is 330 Å².

Q: And the “collision cross section (N2)” value ([2]; [M+NH4]+)?
A: The value was 328.42 Å² and 327.73 Å².

Q: What about the “collision cross section (N2)” value ([2]; [M+Na]+) of the same molecule?
A: Its value is 329.2 Å².

Q: For `CC/C=C\C/C=C\C/C=C\C/C=C\C/C=C\CCCCCC(=O)OC[C@@H](COC(=O)CCCCCCCCCCCCCCC)OC(=O)CCC/C=C\C/C=C\C/C=C\C/C=C\C/C=C\CC` [TG(58:10)], which “collision cross section (N2)” value ([5]; [M+NH4]+) is on record?
A: Its value is 327.2 Å².

Q: And the “collision cross section (N2)” value ([2]; [M+NH4]+)?
A: The value was 327.44 Å².

Q: What does the source list for `CCCCC/C=C\C/C=C\C/C=C\CCCCCCCCC(=O)OC[C@@H](COC(=O)CCCCCCCCCCCCCCCCC)OC(=O)CCCCCCCCC/C=C\C/C=C\CCCCC` [TG(60:5)]?
A: collision cross section (N2) ([5]; [M+NH4]+): 339.4 Å²; collision cross section (N2) ([2]; [M+NH4]+): 344.42 Å²
